Assay [1] relates to human urothelial carcinoma cell line NTUB1. As to the kind of experiment: MTT cytotoxicity assay, NTUB1. It counts as cell-based. The protocol: (§1) Cytotoxicity assay was performed by using C. subavenium supercritical CO2 extract obtained according to the preparation method mentioned above. […] C. subavenium supercritical CO2 extract selectively functioned on NTUB1 carcinoma cells rather than the normal cells.
(§2) Cellular cytotoxicity of tested compounds was performed by using a MTT (3-[4,5-dimethylthiazol-2-yl]-2,5-diphenyltetrazolium bromide) assay. Briefly, the cells were plated with a density of 1×10^3 cells/well in 96-well plates and incubated at 37° C. overnight before drug treatment. Cells were then cultured in the absence or presence of various concentrations (0.3, 1, 3, 6, 9, 12, 15 and 20 μM) of subamolide A at 37° C. for 72 hours. Subsequently, 50 μL of MTT (2 mg/mL in PBS) was added to each well and allowed to react for another 4 hours. Following centrifugation at 1000×g for 10 minutes, media were removed and 150 μL DMSO were added to each well. The proportions of surviving cells were determined by absorbance spectrometry at 540 nm using a microplate reader. The cell viability was expressed as the survival ratio to the un-treated control. The IC50 values of each group were calculated by the median inhibitory analysis and presented as means±SD. The combinational effects of two compounds were analyzed by median-effect analysis. To evaluate the combined effects in growth inhibition, a corresponding combination index (CI) was adopted for the measurement. The combination index of <1, =1, or >1 denotes synergic, additive, or antagonistic effect, respectively.
For orientation: Formazan colour is commonly taken as a measure of viable cells.

In another assay the test system is SV-HUC-1 cells. Put plainly: Intracellular ROS (DCFH-DA flow cytometry), SV-HUC-1. It counts as cell-based, human. Conditions: SV-HUC-1, 10 μM, compared with control cells. The protocol: (§3) Production of ROS was analyzed by flow cytometry. Briefly, cells were plated in 6-well plates, and dichlorofluorescein diacetate (DCFH-DA, […]) were added to the treated cells 30 minutes prior to harvest. The cells were collected by trypsinization and washed with PBS. The green fluorescence of intracellular DCF (2′,7′-dichlorofluorescein) was then analyzed by FACScan™ flow cytometer with a 525-nm band pass filter. The ROS production efficiency (M1 ratio) was calculated as “[counts of treated sample in M1−counts of control in M1]/counts of control in M1×100”.
A general note: Flow cytometry measures light scatter and fluorescence of single cells or particles in a stream.

In assay [2] the test system is NTUB1 cells. As to the kind of experiment: Combinational cytotoxicity (MTT, combination index, median-effect analysis). Conditions: 24, 48, 72 hours. It counts as cell-based, human. The protocol:
as §2, with “respectively. […]” for “respectively.”

The subject of assay [3] is NTUB1 cells. Put plainly: Cell cycle / sub-G1 apoptotic fraction by flow cytometry. It counts as cell-based, human. Conditions: 24 hours.
Assay [4] deals with urothelial carcinoma cells T24. As to the kind of experiment: MTT cytotoxicity assay, T24. It counts as cell-based, human. Conditions: T24, 72 hours; read-out: IC50 (reduction of growth). The protocol: as §2
For assay [5], the system named is normal urothelial cell line SV-HUC-1. As to the kind of experiment: MTT cytotoxicity assay, SV-HUC-1. It counts as cell-based, human. Conditions: SV-HUC-1, 72 hours; read-out: IC50 (reduction of growth). The protocol:
as §1
as §2, with “To evaluate the combined effects in growth inhibition, a corresponding combination index (CI) was adopted for the measurement. The combination index of <1, =1, or >1 denotes synergic, additive, or antagonistic effect, respectively.” left out

Assay [6] has as its system NTUB1 cells. Put plainly: Immunoblotting of cellular proteins. It counts as cell-based, human. A general note: Immunoblotting shows a protein as a band on a membrane.
Assay [7] relates to prostate cancer cells PC3. As to the kind of experiment: MTT cytotoxicity assay, PC3. It counts as cell-based, human. Particulars: PC3, 72 hours; read-out: IC50 (reduction of growth). The protocol:
as §2

Assay [8] concerns NTUB1 cells. Put plainly: Intracellular ROS (DCFH-DA flow cytometry), NTUB1. Conditions: NTUB1, 10 μM, compared with control cells. It counts as cell-based, human. The protocol: as §3

Where two headings read alike, the source gives them in different places.

As a reminder, the IC50 is the concentration at which inhibition is half-maximal. For the compound `N.N.[Cl][Pt][Cl]` [CDDP, cis-diamminedichloridoplatinum], the concentration for half-maximal inhibition (IC50) in [1] (72 hours, 1×10^3 cells/well (data not shown), read-out: IC50 to NTUB1 cells) is 3000 nM.
Take `Nc1ccn([C@@H]2O[C@H](CO)[C@@H](O)C2(F)F)c(=O)n1` [Gem, 4-amino-1-(2-deoxy-2,2-difluoro-β-D-erythro-pentofuranosyl)-pyrimidin-2(1H)-on]: the 50% inhibitory concentration (IC50) in assay [1] (Homo sapiens, NTUB1, 72 hours, 1×10^3 cells/well (data not shown), read-out: IC50 to NTUB1 cells) turned out to be 8 nM.
Take “(3Z,4R,5R)-3-tetradecylidene-4-hydroxy-5-methoxy-5-methylbutanolide [subamolide A]”: the entries for the “ROS M1 ratio” value with SV-HUC-1 cells and with NTUB1 cells [8] were −11.6±1.41% and −14.7±0.99%, respectively. For the same compound, in the assay with NTUB1 cells [2] (subamolide A 0, 1, 5, 10 μM + CDDP 1 and 3 μM), the “combinational effect with CDDP” value is reported as “synergism”. Further, the “combinational effect with Gem” value with NTUB1 cells [2] (subamolide A 0, 1, 5, 10 μM + Gem 2 and 8 nM) is “synergism”. In addition, the sub-G1 apoptotic fraction was determined as 5% with NTUB1 cells [3] (1 μM), 10.8% in the assay with NTUB1 cells [3] (5 μM) and 21.9% in the assay with NTUB1 cells [3] (10 μM). The IC50 in assay [1] (NTUB1, 72 hours, read-out: IC50 (reduction of growth)) came to 7260 ± 670 nM; in assay [4], 7.6 ± 0.96 µM; in assay [5] it was 18.1 ± 1.03 µM; in assay [7], 10.1 ± 0.59 µM. Also, the “Bax/Bcl-2 ratio, fold of change” value in the assay on NTUB1 cells [6] (10 μM) is reported as “two-fold increase”. The “cytochrome c released from mitochondria to cytosol, fold of change” value with NTUB1 cells [6] (10 μM) worked out at 2.3 folds. For the same compound, the “ERK1/2 activation (immunoblot)” value in the assay on NTUB1 cells [6] (10 μM, 24 hours, not p38 or JNK) is listed as “specifically activated”. Further, the “p53 protein and phosphorylation of p53 at serine 15” value with NTUB1 cells [6] (NTUB1 cells) is listed as “induced”. Besides, the “pro-caspase 3 and 116 kDa full length PARP proteins” value with NTUB1 cells [6] (with increased concentration) was “decreased”.
